# Assays:
# rice callus cells [1] = experiment: Selection of transformed rice callus cells and plants, Agrobacterium method (vector pUb-OSASA1D); format: cell-based, rice (variety: Nihonbare)
# Experimental: Preparation of Agrobacterium bacterium was carried out in the same manner as in Example 3(4) using the recombinant vector pUb-OSASA1D mentioned in the above (1). Preparation of rice callus cells was carried out in the same manner as in Example 3(5). And, gene introduction into the rice callus cells was carried out in the same manner as in Example 3(6).
# The obtained calli as transformed with the recombinant vector were washed with sterilized water containing 500 mg/l carbenicillin, to remove the Agrobacterium bacterium. After removal of excess water, the calli (20 calli per petri dish, 500 calli in total) were transplanted to a solid medium as prepared by adding 30 g/l sucrose, 2 mg/l 2,4-PA, 500 mg/l carbenicillin, 2 g/l Gerite and 3×10^−4 M 5MT as a selective drug, to the inorganic salt composition of N6 medium. […]
# (§1) After one month of cultivation, the number of the transformed calli thus selected was counted. […]
# The transformed calli as selected by the above cultivation in view of their 5MT resistance were transplanted to a solid regeneration medium which was prepared by adding 30 g/l sucrose, 30 g/l sorbitol, 2 g/l casamino acid, 1 mg/l NAA, 2 mg/l BA, 4 g/l Gel lite and3×10^−4M 5MT to the inorganic salt composition of MS medium. […] The number of the transformed plants regenerated from the transformed calluses was counted. […]
# rice callus cells [2] = experiment: Selection of transformed rice callus cells and plants, direct introduction using whiskers (vector pUBdD); format: cell-based, rice (variety: Nihonbare)
# Experimental: Ripe seeds of rice (variety: Nihonbare) were hulled, and the resulting seeds with coats were sterilized by immersion in a 70% ethanol solution for 60 seconds and then in a sodium hypochlorite solution containing about 1% effective chlorine for 6 minutes, followed by washing with sterilized water.
# The thus sterilized rice seeds were placed on a medium as prepared by adding 30 g/l sucrose, 2 mg/l 2,4-PA as a phytohormone and 8 g/l agar to the inorganic component composition of MS medium. Incubation of seeds was carried out at 28° C. for 45 days with irradiation with light at 2000 lx for 16 hours per day, to form callus. The formed calli were cut from the albumen of the seeds, and those calli having a size of 1 mm or less were obtained in an amount of 3 ml in term of PCV (Packed Cell Volume), with using a stainless steel sieve (mesh size: 1 mm).
# Separately, […] of potassium titanate whiskers (LS20, Titan Kogyo K.K.) was put into a 1.5-ml tube, and 0.5 ml of ethanol was added thereto. The mixture was allowed to stand overnight, and ethanol was evaporated completely to obtain sterilized whiskers. To this tube containing the whiskers was added 1 ml of sterilized water, followed by sufficient stirring. […]
# as §1
# [3] = 30 days on regeneration medium with selective drug (3×10^−4 M 5MT, or 50 mg/l hygromycin in control group)
smiles,measurement,setting,value
"Cc1ccc2[nH]cc(C[C@H](N)C(=O)O)c2c1 [Test Group, 5-methyltryptophan]",Transformed Callus Cells Selected,"rice callus cells [1]; 500 calli tested, one month on selective medium (3×10^−4 M 5MT, or 50 mg/l hygromycin in control group)",45
same,Transformed Plants Selected,rice callus cells [1]; [3],43
same,Transformed Callus Cells Selected,"rice callus cells [2]; 2000 divided cells tested, one month on selective medium (10^−4 M 5MT, or 50 mg/l hygromycin in control group)",102
same,Transformed Plants Selected,rice callus cells [2]; [3],85

# Reference: US6388174B1, “Gene encoding α-subunit of rice anthranilate synthase and DNA relating thereto” (Hokko Chemical Industry Co., Ltd., priority 1997, dated 2002)
